“Also recorded” adds a separate entry of the source.
Columns and labels:
[1] = test system: RB857 (PAH-1 mutant) and N2 (WT) worms; test: C. elegans model for PKU; format: in vivo, Caenorhabditis elegans
Description: (§1) Wild-type N2, RB857 and NL2099 worms were obtained from the Caenorhabditis Genetics Center. RNAi clones was obtained from the Ahringer RNAi library as previously described [Fisher A L, et al., J. Biol. Chem. 283: 9127-9135(2008)]. Worms were grown on NGM media without peptone and the metabolites were added into a boiling media. Baicalein and EGCG were added to a media after cooled down to 45 degrees.
To study PKU in C. elegans model, a strain was used with mutation in the PAH-1 gene (RB857)]. […] Next, the effect of one of the previously identified hits i.e. baicalein was examined on the development of worms. The life cycle of C. elegans is comprised of the embryonic stage, four larval stages (L1-L4) and adulthood. The end of each larval stage is marked with a molt, during which a new, stage-specific cuticle is synthesized and the old one is shed.

aro4Δ mutant = test: Yeast growth assay of aro4Δ mutant with phenylalanine; format: cell-based, Saccharomyces cerevisiae; details: SD medium with phenylalanine
Excerpt: The focus was put on a strain with a deletion of the ARO4 gene. The inventors aimed to determine whether the toxic effect is influenced by phenylalanine feeding. Thus, the cellular growth of wild-type and the aro4Δ mutant was examined by serial dilutions on selective plates that were supplemented with phenylalanine. In addition, cellular growth was also examined by measuring the turbidity of the medium upon addition of phenylalanine (FIG. 26A, 26B).

aro3Δ mutant = test: Yeast growth assay of aro3Δ mutant with tyrosine feeding; format: cell-based, Saccharomyces cerevisiae
Description: (§2) Strains were grown over night at 30° C. in SD medium without adenine. For spotting assays, strains were diluted to 6.25*10^7 cells/mL and were then 5-fold serially diluted and spotted on SD media with the indicated concentrations of adenine or TA (Sigma-Aldrich). Plates were incubated at 30° C. for 2 days. […] For OD600 measurements, strains were diluted to OD600 0.01, 200 μL of cells were platted on 96 wells plates and incubated at 30° C. for 25 hours with continuous shaking. OD600 was measured using Tecan™ SPARK 10M plate reader.
The focus was put on a strain with a deletion of the ARO3 gene in which a significant decrease in cellular growth was observed upon tyrosine feeding (see FIG. 21). The inventors aimed to determine whether the toxic effect was influenced by different levels of tyrosine. Thus, the cellular growth of wild-type and the aro3Δ mutant was examined by serial dilutions on selective plates that were supplemented with different concentrations of tyrosine (FIG. 21A). In addition, cellular growth was also examined by measuring the turbidity of the medium upon addition of the indicated concentration of tyrosine (FIG. 21B). […] Thus, cell growth is affected by tyrosine levels in a dose-dependent manner which further supports the notion that the toxicity in the aro3Δ mutant results from the presence of tyrosine.
In order to examine the effect of EGCG on cell growth, the aro3Δ mutant was spotted on 4a.a SD plates that contained tyrosine alone or tyrosine with different concentrations of EGCG. […] Thus, the lag phase in the presence of EGCG was nearly the same as cells unexposed to tyrosine, indicating the potent ability of EGCG to eliminate the tyrosine sensitivity of the aro3Δ mutant. […] Next, the inventors aimed to gain additional insights into the effect of EGCG on the amyloid-like fibrils formed by the accumulation of tyrosine in the aro3Δ mutant cells. For that purpose, cells were stained with the amyloid-specific dye ProteoStat®, and FACS was applied to detect tyrosine aggregates. […] (FIG. 25).

phenylalanine assemblies = details: reference [4]; cited from earlier work
wild-type strain = test: Yeast growth assay of wild-type strain; format: cell-based, Saccharomyces cerevisiae; details: tyrosine in media, EGCG added
Description: as §2

[2] = test system: tyrosine aggregates in aro3Δ mutant cells; test: Flow cytometry with ProteoStat staining of aro3Δ mutant; format: cell-based, Saccharomyces cerevisiae; details: tyrosine 0.02 mM, EGCG 5 mM
Description: An amount of 1 mL of logarithmic cells were washed with PBS buffer and sonicated using 15 s pulses at 20% power. For each sample, 2*10^6 cells were resuspended with ProteoStat dye (Enzo Life Sciences) diluted 1:3000 in ProteoStat assay buffer. Cells were incubated for 15 min at room temperature protected from light. Flow cytometry was preformed using Stratedigm S1000EXi and the CellCapTure software (Stratedigm, San Jose, Calif.). Live cells were gated (P1) by forward scatter and side scatter. Fluorescence channels for FITC (530/30) and PE-Cy5 (676/29) were used utilizing a 488 nm laser source. A total of 50,000 events were acquired for each sample. Analyses were performed using FlowJo software (TreeStar, version 10).
In order to examine whether the inhibition in cell growth in a non-linear cooperative manner upon tyrosine feeding (FIG. 23A, 23B) is associated with in vivo formation of amyloid-like assemblies, cells were stained with ProteoStat®, a well-established amyloid-specific fluorescent dye that was previously shown to detect the presence of intracellular protein amyloid-like aggregates in living bacterial cells with high specificity, even when the target proteins are expressed at low levels.
In order to examine the effect of EGCG on cell growth, the aro3Δ mutant was spotted on 4a.a SD plates that contained tyrosine alone or tyrosine with different concentrations of EGCG. […]

fah-1 RNAi treated worms = test: C. elegans model for Tyrosinemia (fah-1 RNAi); format: in vivo, Caenorhabditis elegans; details: fah-1 RNAi, tyrosine added, EGCG added
Description: as §1
Mutations in different enzymes that are involved in the tyrosine degradation pathway are responsible for different types of Tyrosinemia. The tyrosine degradation pathway in mammals and C. elegans in conserved and the most severe is type I Tyrosinemia, which is caused by mutations affecting the last enzyme in the pathway, fumarylacetoacetate hydrolase (FAH). To study Tyrosinemia in C. elegans model, an RNAi was used that specifically silences the fumarylacetoacetate hydrolase (fah-1), as was previously reported (K10C4.2). RNAi directed against fah-1 causes severe phenotype of reduced size, impaired fertility and reduction of total number of viable worms (FIG. 32).

lat1Δ = test: Yeast growth assay of lat1Δ with isoleucine; format: cell-based, Saccharomyces cerevisiae; details: minimal media with isoleucine, 40 h
Description: Growth curves of WT and lat1Δ on minimal media with or without […] isoleucine. Cells were incubated at 30° C. for 40 h, with continuous shaking.
To establish an in vivo model in yeast for the study of BCAA accumulation and toxicity, the LAT1 gene was disrupted. LAT1 encodes the dihydrolipoamide acetyltransferase component (E2) of the yeast pyruvate dehydrogenase complex. LAT1 catalyzes the oxidative decarboxylation of pyruvate to acetyl-CoA and mutations in DBT1, the human homolog, can lead to Maple Syrup Urine Disease (MSUD).

gcv1Δ cells = details: SD media with glycine

## N[C@@H](Cc1ccccc1)C(=O)O [phenylalanine]
[1]; 100 mM Phenylalanine
  RB857 worms that didn't reach adulthood by day 10: more than 90%
[1]; RB857, 100 mM phenylalanine in minimal media
  worms reaching adulthood on day 4: none of the worms reached adulthood on day 4
[1]; RB857, phenylalanine added
  number of worms: significantly reduced the number of worms
aro4Δ mutant
  growth of aro4Δ mutant with phenylalanine in the medium: growth inhibition

## O=C(O[C@@H]1Cc2c(O)cc(O)cc2O[C@@H]1c1cc(O)c(O)c(O)c1)c1cc(O)c(O)c(O)c1 [EGCG, epigallocatechin gallate]
aro3Δ mutant; 4a.a SD with 0.03 mM tyrosine, different concentrations of EGCG
  growth of aro3Δ mutant: significant improvement in growth in a dose-dependent manner
aro3Δ mutant; tyrosine in media, EGCG treated vs untreated cells
  lag phase of cell growth kinetics: notably shorter
Phenylalanine assemblies
  phenylalanine aggregation and cytotoxicity of the assemblies in vitro: counteract
wild-type strain
  growth of wild-type cells: no significant changes
[2]
  tyrosine aggregates percentage (ProteoStat, FACS): dramatic reduction in the tyrosine aggregates percentage
fah-1 RNAi treated worms
  fertility of worms: enhance the fertility of worms; also recorded: partially restore
  total number of viable worms: elevation of the total number of worms; also recorded: partially restore

## CC[C@H](C)[C@H](N)C(=O)O [isoleucine]
lat1Δ
  growth with isoleucine in the growth medium: sensitivity

## NCC(=O)O [glycine]
gcv1Δ cells
  growth with glycine in the growth medium: dose-dependent growth inhibition

Reference: patent publication US20210381022A1, “INTEGRATED DRUG DISCOVERY PLATFORM FOR INBORN ERROR OF METABOLISM DISORDERS” (RAMOT AT TEL-AVIV UNIVERSITY LTD., priority 2018, published 2021)
